Test results reported in the NIST ThermoML archive (doi:10.1021/acs.jced.8b00958).
± gives the expanded uncertainty stated by the source.

Experiment: mn = molality of the nth substance listed, in mol/kg
Conditions: 85 kPa, Liquid; for viscosity: Falling or rolling sphere viscometry; for speed of sound: Frequency=3 MHz, Single path-length method; for mass density: Vibrating tube method

O=C(CO)[C@@H](O)[C@H](O)[C@H](O)CO [D-fructose] + O
Conditions | mass density [kg/m3] | speed of sound [m/s] | viscosity [mPa·s]
288.15 K, m1 = 0.0498 | 1002.61 ± 0.62 | – | 1.163 ± 0.032
288.15 K, m1 = 0.1521 | – | – | 1.224 ± 0.032
288.15 K, m1 = 0.2488 | 1016.24 ± 0.65 | 1484.3 ± 1.3 | 1.274 ± 0.032
288.15 K, m1 = 0.3494 | 1022.9 ± 0.67 | 1491.6 ± 1.4 | 1.335 ± 0.032
288.15 K, m1 = 0.4476 | 1029.24 ± 0.69 | 1498.6 ± 1.4 | 1.394 ± 0.032
288.15 K, m1 = 0.5483 | 1035.58 ± 0.72 | – | 1.465 ± 0.033
288.15 K, m1 = 0.6491 | 1041.8 ± 0.75 | 1512.6 ± 1.4 | 1.529 ± 0.033
298.15 K, m1 = 0.0498 | 1000.49 ± 0.62 | – | –
298.15 K, m1 = 0.1521 | – | 1506.7 ± 1.3 | 0.964 ± 0.031
298.15 K, m1 = 0.2488 | 1013.83 ± 0.65 | 1513.1 ± 1.3 | 0.993 ± 0.031
298.15 K, m1 = 0.3494 | 1020.36 ± 0.66 | 1519.4 ± 1.3 | 1.038 ± 0.031
298.15 K, m1 = 0.4476 | 1026.59 ± 0.69 | 1525.6 ± 1.4 | 1.08 ± 0.031
298.15 K, m1 = 0.5483 | 1032.83 ± 0.71 | 1532 ± 1.4 | 1.133 ± 0.032
298.15 K, m1 = 0.6491 | 1038.95 ± 0.73 | 1538.4 ± 1.4 | 1.178 ± 0.032
308.15 K, m1 = 0.0498 | 997.41 ± 0.62 | – | –
308.15 K, m1 = 0.1521 | 1004.25 ± 0.63 | 1528.8 ± 1.3 | 0.774 ± 0.031
308.15 K, m1 = 0.2488 | – | 1534.4 ± 1.3 | 0.804 ± 0.031
308.15 K, m1 = 0.3494 | 1016.98 ± 0.66 | 1540.3 ± 1.3 | 0.836 ± 0.031
308.15 K, m1 = 0.4476 | 1023.1 ± 0.68 | 1546 ± 1.4 | 0.87 ± 0.031
308.15 K, m1 = 0.5483 | 1029.27 ± 0.71 | 1551.3 ± 1.4 | 0.909 ± 0.031
308.15 K, m1 = 0.6491 | 1035.3 ± 0.73 | 1556.9 ± 1.4 | 0.941 ± 0.031
318.15 K, m1 = 0.0498 | 993.54 ± 0.62 | – | 0.624 ± 0.03
318.15 K, m1 = 0.1521 | 1000.27 ± 0.63 | – | 0.648 ± 0.03
318.15 K, m1 = 0.2488 | – | 1549.8 ± 1.3 | 0.67 ± 0.031
318.15 K, m1 = 0.3494 | 1012.8 ± 0.66 | 1555 ± 1.3 | 0.699 ± 0.031
318.15 K, m1 = 0.4476 | 1018.84 ± 0.68 | 1559.9 ± 1.3 | 0.718 ± 0.031
318.15 K, m1 = 0.5483 | 1024.89 ± 0.71 | 1565.3 ± 1.4 | 0.747 ± 0.031
318.15 K, m1 = 0.6491 | 1030.8 ± 0.73 | 1570.3 ± 1.4 | 0.777 ± 0.031
